# According to patent US20200071380A1, “COMBINATION THERAPIES COMPRISING SIRP ALPHA-BASED CHIMERIC PROTEINS” (Shattuck Labs, Inc., priority 2018, published 2020):
# How the values were obtained:
# [1] = tested on: parental CHOK1 cells; test: Flow cytometry binding to parental CHOK1 cells
# Source text: Scale is shown and yellow arrows correspond with each identified monomer. A schematic of the hexamer species is shown to the right, depicting dimerization of the Fc domain and trimerization of the CD40L domain. […] Recombinant hSIRPα-Fc, hCD40L-Fc, and hIgG1 were used as positive controls. […] In both panels, the CHOK1 Parental is on the left and the CHOK1/hCD47 is on the right. […] For both graphs, the CHOK1 Parental is on the bottom. […] In this figure, the control is the top curve, the SIRPα-Fc-CD40L is the middle curve, and the anti-CD47 is the bottom curve.
# The extracellular domain (ECD) of SIRPα and the ECD of CD40L were fused via an antibody Fc domain to generate SIRPαECD-Fc-CD40LECD chimeric proteins. When human proteins were used, the chimeric protein is referred to as hSIRPα-Fc-CD40L; when murine proteins were used, the chimeric protein is referred to as and mSIRPα-Fc-CD40L. […] The purified protein was then analyzed for the presence of each individual domain by Western blotting using anti-SIRPα, anti-Fc, and anti-CD40L antibodies (FIG. 3A, bottom). […] Next, binding affinities for SIRPα-Fc-CD40L to recombinant CD47, CD40, or Fc receptors were evaluated by surface plasmon resonance (SPR). […] A functional ELISA evaluated whether SIRPα-Fc-CD40L could outcompete a commercially available single-sided SIRPα-Fc control for binding to recombinant CD47 (FIG. 3H).
# [2] = tested on: human donor red blood cells (RBCs); test: In vitro hemolysis assay, human erythrocytes; assay type: cell-based
# Experimental: FIG. 22B is a graph showing RBCs and test agents that were incubated at 37° C. for 24 hours and then the media was assessed at OD490 for changes in absorbance due to hemoglobin being released from lysing RBCs. […] FIG. 22D are graphs showing that peripheral blood was isolated from mice receiving three IP doses (300 μg) of the murine SIRPα-Fc-CD40L surrogate (arrows). Cell populations were assessed by flow cytometry and included CD20+ B cells, CD110+, CD4+/CD11c+, and CD8+/CD11c+ dendritic cells.
# However, the in vitro systems used to test this question have significant limitations, including a complete lack of macrophages in the test system.
# [3] = tested on: CT26 tumors; test: Syngeneic CT26 colon tumor model versus CD40/CD47 antibodies (Example 11); assay type: in vivo, mice
# Experimental: FIG. 20C: a similar CT26 experiment was initiated as described in FIG. 20A above, however mice were pre-treated on days −1, 1, and 10 with IP injections of 100 μg of either or both CD4/CD8 depleting antibodies. Mice were inoculated with CT26 tumors on day 0 and treated at a later starting date than FIG. 20A with mSIRPα-Fc-CD40L ARC on days 7, 9, and 11. […] In FIG. 20D and FIG. 20E, BALB/C mice were inoculated with WEHI3 tumors (FIG. 20D) or A20 tumors (FIG. 20E) subcutaneously on the rear flank, and then treated via IP injection with anti-CD20 or mSIRPα-Fc-CD40L on days 7, 9, and 11 (WEHI3) or days 10, 12, and 14 (A20); when tumors were established and reached approximately 57-60 mm^3. A cohort of mice were pre-treated with an interferon alpha receptor 1 (IFNAR1) blocking antibody ([…] by IP injection) on days -1, 1, and 10 (WEHI3) or on days −1, 1, and 13 (A20). FIG. 20F to FIG. 20H are graphs showing blockade of CD4, CD8, and IFNAR1. Peripheral blood analysis by flow cytometry of CD4 (FIG. 20F), CD8 (FIG. 20G), and IFNAR1 (FIG. 20H) depletion following depleting antibody treatment corresponding to FIG. 20C to FIG. 20E. Samples were normalized to untreated animals.
# Implanted CT26 tumors were allowed to grow to ˜30 mm^3 before treatment was initiated with a fixed regimen of two doses of either a CD40 agonist antibody (clone FGK4.5), a CD47 blocking antibody (clone MIAP301), a combination of the two antibodies, or the murine SIRPα-Fc-CD40L chimeric protein. […] Based on this observation, these experiments were repeated in the setting of antibody-mediated depletion of both CD4+ and CD8+ cells (FIG. 20C).
# CD4 and CD8 depletion was verified in the peripheral blood at multiple time points during the experiment (see, FIG. 20F and FIG. 20G).
substance,measurement,setting,value
SIRPα-Fc-CD40L: Generic name of the SIRPα ECD-Fc-CD40L ECD chimeric protein; human or murine version depending on the test system,binding to parental CHOK1 cells,[1],not to parental CHOK1 cells
same,hemolysis in vitro,[2],did not reveal evidence of hemolysis
same,"therapeutic benefit, requirement for CD4+ T cells",[3]; antibody-mediated depletion of CD4+ cells,partially required
same,therapeutic benefit in the absence of CD8+ cells,[3]; antibody-mediated depletion of CD8+ cells,completely eliminated the therapeutic benefit
same,proportion of AH1-tetramer positive CD8+ T cells,"[3]; tumor and spleen, 13 days following tumor inoculation",increase in the proportion of AH1-tetramer positive CD8+T cells in both the tumor and spleen
